Patent US12281225B2, “Process for preparing stable polymers containing vinylimidazole” (BASF SE, priority 2018, dated 2025)

Tests used:
Format in all cases: physicochemical
[1] = Physical stability; visual assessment (color, turbidity, phase separation); set-up: key: ++: no discernible change with respect to color, turbidity or phase separation; +: marginal change in color number, somewhat increased Tyndall effect but no turbidity; 0: easily discernible increase in color number and moderate turbidity−no phase separation; −: turbidity and change in color number readily discernible by visual assessment; −−: strong color change with strong turbidity and incipient phase separation
Description: Physical stability; visual assessment according to:
++=no discernible change with respect to color, turbidity or phase separation; +=marginal change in color number, somewhat increased Tyndall effect but no turbidity; 0=easily discernible increase in color number and moderate turbidity−no phase separation; − turbidity and change in color number readily discernible by visual assessment; −− strong color change with strong turbidity and incipient phase separation.
Before storage, all batches could be rated ++ (no turbidity or phase separation; no influence of the biocide on the color number of the product).

[2] = Iodine color number according to DIN 6162:2014-09
[3] = Analysis of active substance: preservative concentration before and after storage in VI-containing polymer solution; conditions: for active-substance concentration, 0 d, RT: before storage; for active-substance concentration, 14 d, 40° C.: storage 14 d at 40° C.; for active-substance concentration, 28 d, 40° C.: storage 28 d at 40° C.; for active-substance concentration, 60 d 40° C.: storage 60 d at 40° C.
Experimental: Stability of Preservatives in VI-Containing Polymers:
The following stabilizers for VI-containing polymers (here: aqueous solution of a copolymer of vinylpyrrolidone and vinylimidazole) were tested.
MIT, BIT, CMIT, OIT, DCOIT and iodopropynyl butyl carbamate were determined by RP chromatography with UV detection after dilution of the sample to be tested. An RP18 column was used for this purpose, with an eluent composed of an acid-methanol mixture under isocratic conditions.

[4] = Polymer P5 (HP56) with stabilizer

With `CCCCCCCCCC[N+](C)(C)CCCCCCCCCC.[Cl-]` [DDAC, didecyldimethylammonium chloride] the “Physical stability, 60 d 40° C.*” value ([1]; Polymer P1 with stabilizer) was “++”, the “Physical stability, 60 d 40° C.*” value ([1]; Polymer P2 with stabilizer) was “++” and the “Physical stability, 60 d 40° C.*” value ([1]; Polymer P3 with stabilizer) was “++”. The “Physical stability, 60 d 40° C.*” value ([1]; Polymer P4 with stabilizer) was “++”, the “Physical stability, 60 d 40° C.*” value [1, 4] was “++” and the “Physical stability, 60 d 40° C.*” value ([1]; Polymer P6 with stabilizer) was “++”. The “Physical stability, 60 d 40° C.*” value ([1]; Polymer P7 with stabilizer) was “++”, the “Physical stability, 60 d 40° C.*” value ([1]; Polymer P8 with stabilizer) was “++” and the “Physical stability, 60 d 40° C.*” value ([1]; Polymer P9 with stabilizer) was “++”. For the same compound, the “Iodine color number, 60 d 40° C.” value ([2]; Polymer P1 with stabilizer) was 2.9, the “Iodine color number, start” value ([2]; Polymer P1 with stabilizer) was 2.9 and the “Iodine color number, 60 d 40° C.” value ([2]; Polymer P2 with stabilizer) was 3.0. For the same compound, the “Iodine color number, start” value ([2]; Polymer P2 with stabilizer) was 2.9, the “Iodine color number, 60 d 40° C.” value ([2]; Polymer P3 with stabilizer) was 3.3 and the “Iodine color number, start” value ([2]; Polymer P3 with stabilizer) was 3.3. For the same compound, the “Iodine color number, 60 d 40° C.” value ([2]; Polymer P4 with stabilizer) was 3.3, the “Iodine color number, start” value ([2]; Polymer P4 with stabilizer) was 3.3 and the “Iodine color number, 60 d 40° C.” value [2, 4] was 3.3. The “Iodine color number, start” value [2, 4] was 3.3, the “Iodine color number, 60 d 40° C.” value ([2]; Polymer P6 with stabilizer) was 3.3 and the “Iodine color number, start” value ([2]; Polymer P6 with stabilizer) was 3.3. For the same compound, the “Iodine color number, 60 d 40° C.” value ([2]; Polymer P7 with stabilizer) was 3.3, the “Iodine color number, start” value ([2]; Polymer P7 with stabilizer) was 3.3 and the “Iodine color number, 60 d 40° C.” value ([2]; Polymer P8 with stabilizer) was 3.3. The “Iodine color number, start” value ([2]; Polymer P8 with stabilizer) was 3.3, the “Iodine color number, 60 d 40° C.” value ([2]; Polymer P9 with stabilizer) was 3.9 and the “Iodine color number, start” value ([2]; Polymer P9 with stabilizer) was 3.8. For the same compound, the “active-substance concentration, 0 d, RT” value ([3]; in Polymer P1) was 950 ppm, the “active-substance concentration, 14 d, 40° C.” value ([3]; in Polymer P1) was 950 ppm and the “active-substance concentration, 28 d, 40° C.” value ([3]; in Polymer P1) was 940 ppm. For the same compound, the “active-substance concentration, 60 d 40° C.” value ([3]; in Polymer P1) was 940 ppm, the “active-substance concentration, 0 d, RT” value ([3]; in Polymer P2) was 950 ppm and the “active-substance concentration, 14 d, 40° C.” value ([3]; in Polymer P2) was 950 ppm. For the same compound, the “active-substance concentration, 28 d, 40° C.” value ([3]; in Polymer P2) was 940 ppm, the “active-substance concentration, 60 d 40° C.” value ([3]; in Polymer P2) was 940 ppm and the “active-substance concentration, 0 d, RT” value ([3]; in Polymer P3) was 950 ppm. The “active-substance concentration, 14 d, 40° C.” value ([3]; in Polymer P3) was 950 ppm, the “active-substance concentration, 28 d, 40° C.” value ([3]; in Polymer P3) was 940 ppm and the “active-substance concentration, 60 d 40° C.” value ([3]; in Polymer P3) was 930 ppm. For the same compound, the “active-substance concentration, 0 d, RT” value ([3]; in Polymer P4) was 950 ppm, the “active-substance concentration, 14 d, 40° C.” value ([3]; in Polymer P4) was 950 ppm and the “active-substance concentration, 28 d, 40° C.” value ([3]; in Polymer P4) was 942 ppm. The “active-substance concentration, 60 d 40° C.” value ([3]; in Polymer P4) was 940 ppm, the “active-substance concentration, 0 d, RT” value ([3]; in Polymer P5 (HP56)) was 950 ppm and the “active-substance concentration, 14 d, 40° C.” value ([3]; in Polymer P5 (HP56)) was 950 ppm. The “active-substance concentration, 28 d, 40° C.” value ([3]; in Polymer P5 (HP56)) was 940 ppm, the “active-substance concentration, 60 d 40° C.” value ([3]; in Polymer P5 (HP56)) was 940 ppm and the “active-substance concentration, 0 d, RT” value ([3]; in Polymer P6) was 950 ppm. The “active-substance concentration, 14 d, 40° C.” value ([3]; in Polymer P6) was 950 ppm, the “active-substance concentration, 28 d, 40° C.” value ([3]; in Polymer P6) was 950 ppm and the “active-substance concentration, 60 d 40° C.” value ([3]; in Polymer P6) was 943 ppm. For the same compound, the “active-substance concentration, 0 d, RT” value ([3]; in Polymer P7) was 950 ppm, the “active-substance concentration, 14 d, 40° C.” value ([3]; in Polymer P7) was 947 ppm and the “active-substance concentration, 28 d, 40° C.” value ([3]; in Polymer P7) was 945 ppm. For the same compound, the “active-substance concentration, 60 d 40° C.” value ([3]; in Polymer P7) was 938 ppm, the “active-substance concentration, 0 d, RT” value ([3]; in Polymer P8) was 950 ppm and the “active-substance concentration, 14 d, 40° C.” value ([3]; in Polymer P8) was 950 ppm. For the same compound, the “active-substance concentration, 28 d, 40° C.” value ([3]; in Polymer P8) was 940 ppm, the “active-substance concentration, 60 d 40° C.” value ([3]; in Polymer P8) was 940 ppm and the “active-substance concentration, 0 d, RT” value ([3]; in Polymer P9) was 950 ppm. For the same compound, the “active-substance concentration, 14 d, 40° C.” value ([3]; in Polymer P9) was 950 ppm, the “active-substance concentration, 28 d, 40° C.” value ([3]; in Polymer P9) was 944 ppm and the “active-substance concentration, 60 d 40° C.” value ([3]; in Polymer P9) was 940 ppm.
